From patent publication US20160331798A1, “NATURAL PRODUCT INHIBITORS OF 3DG” (Dynamis Pharmaceuticals, Inc., priority 2008, published 2016)
Where a name gives a salt, the structure may show the parent alone.

Key:
[1] = 3DG inactivation assay (3DG binding assay); conditions: for 3DG inactivating activity: summary of Table 3
Experimental: The following assay was used to determine inactivation of 3DG by various natural products and chemicals.
• 1. Dilute the samples with Reagent 1 to a volume of 1.9 ml and add 100 uL Reagent 6 to a total of 2 mL. • 2. Take 600 μL from each solution before incubation (as 0 day sample) • 3. Let sit for 24 hours and 72 hours at 37° and remove 600 μL for samples on day 1 and day 3) • 4.

[2] = in vivo; cited from earlier work
[3] = animal models; cited from earlier work

Which “3DG Conc” value ([1]; 2 mM, 1 day, 37°) does the source give for `Cc1ncc(COP(=O)(O)O)c(C=O)c1O` [Pyridoxal-5′-Phosphate] here?
Its value is 13.71 µM.

And the “3DG Conc” value ([1]; 2 mM, 3 days, 37°)?
Its value is 12.29 µM.

What about the “3DG Conc” value ([1]; 6 mM, 1 day, 37°) of the same compound?
Its value is 13.00 µM.

And the “3DG Conc” value ([1]; 6 mM, 3 days, 37°)?
The value was 8.12 µM.

What about the “3DG Conc” value ([1]; 12 mM, 1 day, 37°) of the same compound?
The value was 12.20 µM.

What about the “3DG Conc” value ([1]; 12 mM, 3 days, 37°) of the same compound?
Its value is 7.14 µM.

And the 3DG inactivating activity [1]?
Its 3DG inactivating activity is “most amount of 3DG inactivating activity”.

Which “3DG Conc” value ([1]; 5 mM, 0 day) does the source give for `CC(C)(CO)[C@@H](O)C(=O)NCCCO` [Panthenol] here?
The value was 19.54 µM.

And the “3DG Conc” value ([1]; 5 mM, 1 day, 37°)?
Its value is 18.10 µM.

And the “3DG Conc” value ([1]; 5 mM, 3 days, 37°)?
The value was 19.51 µM.

And the “3DG Conc” value ([1]; 15 mM, 0 day)?
The value was 18.08 µM.

And the “3DG Conc” value ([1]; 15 mM, 1 day, 37°)?
The value was 17.74 µM.

And the “3DG Conc” value ([1]; 15 mM, 3 days, 37°)?
Its value is 16.84 µM.

What about the “3DG Conc” value ([1]; 30 mM, 0 day) of the same compound?
The value was 18.91 µM.

What about the “3DG Conc” value ([1]; 30 mM, 1 day, 37°) of the same compound?
The value was 17.67 µM.

What about the “3DG Conc” value ([1]; 30 mM, 3 days, 37°) of the same compound?
The value was 17.63 µM.

What does the source list for `Cl.N[C@H]1C(O)O[C@H](CO)[C@@H](O)[C@@H]1O` (stereo partly drawn) [Glucosamine HCl, D-Glucosamine HCl]?
3DG Conc ([1]; 5 mM, 0 day): 25.15 µM; 3DG Conc ([1]; 5 mM, 1 day, 37°): 43.42 µM; 3DG Conc ([1]; 5 mM, 3 days, 37°): 82.33 µM; 3DG Conc ([1]; 15 mM, 0 day): 36.00 µM; 3DG Conc ([1]; 15 mM, 1 day, 37°): 122.14 µM; 3DG Conc ([1]; 15 mM, 3 days, 37°): 181.09 µM; 3DG Conc ([1]; 30 mM, 0 day): 56.87 µM; 3DG Conc ([1]; 30 mM, 1 day, 37°): 183.92 µM; 3DG Conc ([1]; 30 mM, 3 days, 37°): 173.60 µM

Which “3DG Conc” value ([1]; 5 mM, 1 day, 37°) does the source give for `CNC[C@H](O)[C@@H](O)[C@H](O)[C@H](O)CO.Cl` [Meglumine-HCl, reference compound] here?
The value was 17.51 µM.

What about the “3DG Conc” value ([1]; 5 mM, 3 days, 37°) of the same compound?
Its value is 16.27 µM.

What about the “3DG Conc” value ([1]; 15 mM, 1 day, 37°) of the same compound?
Its value is 16.58 µM.

What about the “3DG Conc” value ([1]; 15 mM, 3 days, 37°) of the same compound?
Its value is 17.52 µM.

And the “3DG Conc” value ([1]; 30 mM, 1 day, 37°)?
The value was 15.39 µM.

And the “3DG Conc” value ([1]; 30 mM, 3 days, 37°)?
The value was 15.87 µM.

For `N[C@@H](CCCCNC[C@H](O)[C@@H](O)[C@H](O)[C@H](O)CO)C(=O)O` [sorbitollysine], which “urinary or plasma 3DG” value [2] is on record?
Its value is “reduced”.

What does the source list for `NCCC(=O)N[C@@H](Cc1cnc[nH]1)C(=O)O` [Carnosine]?
3DG Conc ([1]; 2 mM, 1 day, 37°): 16.85 µM; 3DG Conc ([1]; 2 mM, 3 days, 37°): 15.58 µM; 3DG Conc ([1]; 5 mM, 1 day, 37°): 16.18 µM; 3DG Conc ([1]; 5 mM, 3 days, 37°): 14.58 µM; 3DG Conc ([1]; 6 mM, 1 day, 37°): 15.96 µM; 3DG Conc ([1]; 6 mM, 3 days, 37°): 16.93 µM; 3DG Conc ([1]; 12 mM, 1 day, 37°): 15.05 µM; 3DG Conc ([1]; 12 mM, 3 days, 37°): 12.37 µM; 3DG Conc ([1]; 15 mM, 1 day, 37°): 16.90 µM; 3DG Conc ([1]; 15 mM, 3 days, 37°): 15.39 µM; 3DG Conc ([1]; 30 mM, 1 day, 37°): 18.45 µM; 3DG Conc ([1]; 30 mM, 3 days, 37°): 13.97 µM

Which “3DG Conc” value ([1]; 2 mM, 0 day) does the source give for `Cc1ncc(CO)c(CO)c1O` [Pyridoxine] here?
The value was 16.32 µM.

What about the “3DG Conc” value ([1]; 2 mM, 1 day, 37°) of the same compound?
The value was 14.82 µM.

What about the “3DG Conc” value ([1]; 2 mM, 3 days, 37°) of the same compound?
The value was 16.35 µM.

And the “3DG Conc” value ([1]; 6 mM, 0 day)?
Its value is 16.13 µM.

What about the “3DG Conc” value ([1]; 6 mM, 1 day, 37°) of the same compound?
The value was 16.67 µM.

And the “3DG Conc” value ([1]; 6 mM, 3 days, 37°)?
Its value is 15.83 µM.

What about the “3DG Conc” value ([1]; 12 mM, 0 day) of the same compound?
Its value is 15.90 µM.

What about the “3DG Conc” value ([1]; 12 mM, 1 day, 37°) of the same compound?
Its value is 15.85 µM.

And the “3DG Conc” value ([1]; 12 mM, 3 days, 37°)?
The value was 15.44 µM.

What does the source list for `CC(C)(CO)[C@@H](O)C(=O)NCCC(=O)[O-].CC(C)(CO)[C@@H](O)C(=O)NCCC(=O)[O-].[Ca+2]` [Calcium Panthenate]?
3DG Conc ([1]; 2.5 mM, 1 day, 37°): 17.27 µM; 3DG Conc ([1]; 2.5 mM, 3 days, 37°): 16.18 µM; 3DG Conc ([1]; 5 mM, 0 day): 21.06 µM; 3DG Conc ([1]; 5 mM, 1 day, 37°): 18.13 µM; 3DG Conc ([1]; 5 mM, 3 days, 37°): 17.96 µM; 3DG Conc ([1]; 7.5 mM, 1 day, 37°): 16.92 µM; 3DG Conc ([1]; 7.5 mM, 3 days, 37°): 15.37 µM; 3DG Conc ([1]; 12.5 mM, 1 day, 37°): 18.58 µM; 3DG Conc ([1]; 12.5 mM, 3 days, 37°): 14.57 µM; 3DG Conc ([1]; 15 mM, 0 day): 22.86 µM; 3DG Conc ([1]; 15 mM, 1 day, 37°): 18.84 µM; 3DG Conc ([1]; 15 mM, 3 days, 37°): 16.95 µM; 3DG Conc ([1]; 30 mM, 0 day): 22.09 µM; 3DG Conc ([1]; 30 mM, 1 day, 37°): 19.56 µM; 3DG Conc ([1]; 30 mM, 3 days, 37°): 19.17 µM

Which “3DG Conc” value ([1]; 2 mM, 1 day, 37°) does the source give for `N=C(N)NCCC[C@H](N)C(=O)O` [Arginine] here?
Its value is 15.71 µM.

And the “3DG Conc” value ([1]; 2 mM, 3 days, 37°)?
The value was 13.14 µM.

And the “3DG Conc” value ([1]; 6 mM, 1 day, 37°)?
The value was 13.66 µM.

And the “3DG Conc” value ([1]; 6 mM, 3 days, 37°)?
The value was 8.50 µM.

What about the “3DG Conc” value ([1]; 12 mM, 1 day, 37°) of the same compound?
The value was 12.24 µM.

What about the “3DG Conc” value ([1]; 12 mM, 3 days, 37°) of the same compound?
The value was 4.98 µM.

And the 3DG inactivating activity [1]?
The 3DG inactivating activity was “most amount of 3DG inactivating activity”.

Which “urinary or plasma 3DG” value [2] does the source give for `N[C@@H](CCCCNC[C@@H](O)[C@@H](O)[C@H](O)[C@H](O)CO)C(=O)O` [mannitollysine] here?
Its value is “reduced”.

For `N=C(N)NN` [Aminoguanidine], which “AGEs-associated retinal, neural, arterial, and renal pathologies” value [3] is on record?
Its value is “reduces”.

For `N[C@@H](CCCCNC[C@H](O)[C@@H](O)[C@@H](O)[C@H](O)CO)C(=O)O` [galactitollysine], which “urinary or plasma 3DG” value [2] is on record?
Its value is “reduced”.

Which “3DG Conc” value ([1]; 5 mM, 1 day, 37°) does the source give for Thiamine nitrate here?
The value was 15.87 µM.

And the “3DG Conc” value ([1]; 5 mM, 3 days, 37°)?
The value was 16.45 µM.

What about the “3DG Conc” value ([1]; 15 mM, 1 day, 37°) of the same compound?
The value was 18.90 µM.

What about the “3DG Conc” value ([1]; 15 mM, 3 days, 37°) of the same compound?
The value was 14.19 µM.

What about the “3DG Conc” value ([1]; 30 mM, 1 day, 37°) of the same compound?
The value was 17.20 µM.

And the “3DG Conc” value ([1]; 30 mM, 3 days, 37°)?
Its value is 14.85 µM.

With `NC[C@H]1CC[C@H](C(=O)O)CC1` [Tranexamic Acid, reference compound] as the compound, how does the “3DG Conc” value ([1]; 5 mM, 0 day) read?
The value was 20.96 µM.

And the “3DG Conc” value ([1]; 5 mM, 1 day, 37°)?
Its value is 24.16 µM.

What about the “3DG Conc” value ([1]; 5 mM, 3 days, 37°) of the same compound?
Its value is 22.02 µM.

And the “3DG Conc” value ([1]; 15 mM, 0 day)?
Its value is 18.06 µM.

What about the “3DG Conc” value ([1]; 15 mM, 1 day, 37°) of the same compound?
The value was 18.98 µM.

What about the “3DG Conc” value ([1]; 15 mM, 3 days, 37°) of the same compound?
The value was 19.21 µM.

What about the “3DG Conc” value ([1]; 30 mM, 0 day) of the same compound?
Its value is 19.25 µM.

What about the “3DG Conc” value ([1]; 30 mM, 1 day, 37°) of the same compound?
The value was 17.42 µM.

And the “3DG Conc” value ([1]; 30 mM, 3 days, 37°)?
The value was 16.87 µM.

For `Cc1ncc(C[n+]2csc(CCO)c2C)c(N)n1` [Thiamine-HCl], which “3DG Conc” value ([1]; 5 mM, 1 day, 37°) is on record?
Its value is 16.27 µM.

And the “3DG Conc” value ([1]; 5 mM, 3 days, 37°)?
Its value is 14.49 µM.

And the “3DG Conc” value ([1]; 15 mM, 1 day, 37°)?
The value was 14.83 µM.

And the “3DG Conc” value ([1]; 15 mM, 3 days, 37°)?
The value was 14.81 µM.

What about the “3DG Conc” value ([1]; 30 mM, 1 day, 37°) of the same compound?
Its value is 17.76 µM.

And the “3DG Conc” value ([1]; 30 mM, 3 days, 37°)?
The value was 14.89 µM.

Which “3DG Conc” value ([1]; 2 mM, 0 day) does the source give for `Cc1ncc(CO)c(C=O)c1O.Cl` [Pyridoxal-HCl] here?
Its value is 16.46 µM.

And the “3DG Conc” value ([1]; 2 mM, 1 day, 37°)?
Its value is 12.16 µM.

What about the “3DG Conc” value ([1]; 2 mM, 3 days, 37°) of the same compound?
Its value is 16.19 µM.

And the “3DG Conc” value ([1]; 6 mM, 0 day)?
Its value is 16.02 µM.

What about the “3DG Conc” value ([1]; 6 mM, 1 day, 37°) of the same compound?
The value was 14.57 µM.

And the “3DG Conc” value ([1]; 6 mM, 3 days, 37°)?
The value was 15.72 µM.

What about the “3DG Conc” value ([1]; 12 mM, 0 day) of the same compound?
The value was 14.80 µM.

And the “3DG Conc” value ([1]; 12 mM, 1 day, 37°)?
The value was 14.79 µM.

And the “3DG Conc” value ([1]; 12 mM, 3 days, 37°)?
The value was 14.99 µM.

What does the source list for `O=C1O[C@H]([C@@H](O)CO)C(O)=C1O` [Ascorbic Acid]?
3DG Conc ([1]; 5 mM, 1 day, 37°): 13.75 µM; 3DG Conc ([1]; 5 mM, 3 days, 37°): 11.86 µM; 3DG Conc ([1]; 15 mM, 1 day, 37°): 13.99 µM; 3DG Conc ([1]; 15 mM, 3 days, 37°): 10.18 µM; 3DG Conc ([1]; 30 mM, 1 day, 37°): 17.26 µM; 3DG Conc ([1]; 30 mM, 3 days, 37°): 12.64 µM
